PubChem BioAssay AID248 (DTP/NCI, 2004)
Values joined by “and” are separate entries in the source; they are usually repeats but may differ in a detail not shown here. Equal entries are not always repeated. Inconclusive results and toxic doses are left out. No stated cut-off is given here; in the data, active means T/C of 150% or more; inactive means T/C below 125%. Bridge positions count the residues as written; N and C are the ends. Square brackets hold non-standard residues; d marks the D form. Peptide text beside a SMILES is read from it. NMeV = CN[CH](C(=O)O)C(C)C; Sar = CNCC(=O)O

Test system: L1210 leukemia ip in BDF1 mice, survival T/C
Assay: NCI In Vivo Anticancer Drug Screen. Data for tumor model L1210 Leukemia (intraperitoneal) in B6D2F1 (BDF1) mice
Details: endpoint: mean survival time, higher = longer survival
Procedure, shortened: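 Tumor cells were implanted, animals were treated, and survival was followed. The result divides the treated measurement by the vehicle-control measurement.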

[1] = dose: 100.0 mg/kg/injection, schedule: Q01DX009 (ip), vehicle: Klucel (hydroxypropylcellulose) (HPC)
[2] = dose: 100.0 mg/kg/injection, schedule: Q04DX003 (ip), vehicle: Klucel (hydroxypropylcellulose) (HPC)
[3] = dose: 200.0 mg/kg/injection, schedule: Q01DX009 (ip), vehicle: Klucel (hydroxypropylcellulose) (HPC)
[4] = dose: 200.0 mg/kg/injection, schedule: Q04DX003 (ip), vehicle: Klucel (hydroxypropylcellulose) (HPC)
[5] = dose: 400.0 mg/kg/injection, schedule: Q04DX003 (ip), vehicle: Klucel (hydroxypropylcellulose) (HPC)
[6] = dose: 100.0 mg/kg/injection, schedule: Q01DX001 (ip), vehicle: carboxymethylcellulose (CMC)
[7] = dose: 100.0 mg/kg/injection, schedule: Q01DX009 (ip), vehicle: saline with Tween-80
[8] = dose: 100.0 mg/kg/injection, schedule: Q04DX003 (ip), vehicle: saline with Tween-80
[9] = dose: 200.0 mg/kg/injection, schedule: Q01DX001 (ip), vehicle: carboxymethylcellulose (CMC)
[10] = dose: 200.0 mg/kg/injection, schedule: Q01DX009 (ip), vehicle: saline with Tween-80
[11] = dose: 200.0 mg/kg/injection, schedule: Q04DX003 (ip), vehicle: saline with Tween-80
[12] = dose: 400.0 mg/kg/injection, schedule: Q01DX001 (ip), vehicle: carboxymethylcellulose (CMC)
[13] = dose: 400.0 mg/kg/injection, schedule: Q01DX009 (ip), vehicle: saline with Tween-80
[14] = dose: 400.0 mg/kg/injection, schedule: Q04DX003 (ip), vehicle: saline with Tween-80
[15] = dose: 50.0 mg/kg/injection, schedule: Q01DX009 (ip), vehicle: saline
[16] = dose: 100.0 mg/kg/injection, schedule: Q01DX009 (ip), vehicle: saline
[17] = dose: 100.0 mg/kg/injection, schedule: Q04DX003 (ip), vehicle: saline
[18] = dose: 200.0 mg/kg/injection, schedule: Q01DX009 (ip), vehicle: saline
[19] = dose: 200.0 mg/kg/injection, schedule: Q04DX003 (ip), vehicle: saline
[20] = dose: 400.0 mg/kg/injection, schedule: Q04DX003 (ip), vehicle: saline
[21] = dose: 100.0 mg/kg/injection, schedule: Q04DX002 (ip), vehicle: saline
[22] = dose: 200.0 mg/kg/injection, schedule: Q04DX002 (ip), vehicle: saline
[23] = dose: 400.0 mg/kg/injection, schedule: Q04DX002 (ip), vehicle: saline
[24] = dose: 400.0 mg/kg/injection, schedule: Q01DX009 (ip), vehicle: saline
[25] = dose: 400.0 mg/kg/injection, schedule: Q01DX009 (ip), vehicle: Klucel (hydroxypropylcellulose) (HPC)
[26] = dose: 100.0 mg/kg/injection, schedule: Q04DX003 (ip), vehicle: acetone

Measured: T/C

CCOc1c(/C=N/NC(=O)c2ccccc2OC)cccc1OC
inactive: [1] 116 % of control | [2] 102 % of control | [3] 95 % of control | [4] 105 % of control | [5] 107 % of control

NC(Cc1cccs1)C(=O)O (stereo not given)
inactive: [6] 96 % of control | [7] 101 % of control | [8] 99 % of control | [9] 101 % of control | [10] 104 % of control | [11] 99 % of control | dose: 250.0 mg/kg/injection, schedule: Q01DX Z (ip), vehicle: carboxymethylcellulose (CMC) 89 % of control | [12] 101 % of control | [13] 97 % of control | [14] 96 % of control | dose: 1000.0 mg/kg/injection, schedule: Q01DX Z (ip), vehicle: carboxymethylcellulose (CMC) 92 % of control

CCCCOB1OC(c2ccccc2)(c2ccccc2)c2ccccc2C(c2ccccc2)(c2ccccc2)O1
inactive: [6] 91 % of control | [9] 91 % of control | [12] 98 % of control

CC(C)(O)C(I)C[n+]1ccccc1 (stereo not given)
inactive: [15] 107 % of control | dose: 88.0 mg/kg/injection, schedule: Q04DX003 (ip), vehicle: saline with Tween-80 124 % of control | [16] 110 % of control and 113 % of control | [8] 106 % of control | [17] 102 % of control and 111 % of control | dose: 133.0 mg/kg/injection, schedule: Q04DX003 (ip), vehicle: saline with Tween-80 119 % of control | dose: 175.0 mg/kg/injection, schedule: Q04DX003 (ip), vehicle: saline 106 % of control | [18] 117 % of control and 121 % of control | [11] 117 % of control | [19] 108 % of control | dose: 265.0 mg/kg/injection, schedule: Q04DX003 (ip), vehicle: saline 114 % of control | [20] 121 % of control | dose: 600.0 mg/kg/injection, schedule: Q04DX003 (ip), vehicle: saline 90 % of control

O=C(NCCCl)OCCCl
inactive: [21] 94 % of control | [22] 97 % of control | [23] 94 % of control

CC(C)C1NC(=O)C(N)C(C)OC(=O)C(C(C)C)N(C)C(=O)CN(C)C(=O)C2CCCN2C1=O (stereo not given) (tested in a mixture with another compound) (H-TVP[Sar][NMeV]; ester 1-C; configuration not given here)
inactive: dose: 0.1 mg/kg/injection, schedule: Q01DX001 (ip), vehicle: saline + alcohol 103 % of control | dose: 0.2 mg/kg/injection, schedule: Q01DX001 (ip), vehicle: saline + alcohol 107 % of control | dose: 0.4 mg/kg/injection, schedule: Q01DX001 (ip), vehicle: saline + alcohol 124 % of control | dose: 0.8 mg/kg/injection, schedule: Q01DX001 (ip), vehicle: saline + alcohol 122 % of control | dose: 15.6 micrograms/kg/injection, schedule: Q01DX009 (ip), vehicle: other 95 % of control | dose: 25.0 micrograms/kg/injection, schedule: Q01DX009 (ip), vehicle: saline + alcohol 106 % of control | dose: 31.3 micrograms/kg/injection, schedule: Q01DX009 (ip), vehicle: other 92 % of control | dose: 62.5 micrograms/kg/injection, schedule: Q01DX009 (ip), vehicle: other 97 % of control | dose: 75.0 micrograms/kg/injection, schedule: Q04DX003 (ip), vehicle: saline + alcohol 103 % of control | dose: 125.0 micrograms/kg/injection, schedule: Q01DX009 (ip), vehicle: other 105 % of control | dose: 150.0 micrograms/kg/injection, schedule: Q04DX003 (ip), vehicle: saline + alcohol 106 % of control | dose: 250.0 micrograms/kg/injection, schedule: Q01DX009 (ip), vehicle: other 121 % of control | dose: 300.0 micrograms/kg/injection, schedule: Q04DX003 (ip), vehicle: saline + alcohol 121 % of control | dose: 500.0 micrograms/kg/injection, schedule: Q01DX009 (ip), vehicle: other 103 % of control | dose: 1200.0 micrograms/kg/injection, schedule: Q04DX003 (ip), vehicle: saline + alcohol 116 % of control

N/C(=N\O)c1cn(C2OC(CO)C(O)C2O)c2nc(Cl)nc(N)c12 (stereo not given)
inactive: dose: 50.0 mg/kg/injection, schedule: Q01DX001 (ip), vehicle: Klucel (hydroxypropylcellulose) (HPC) 109 % of control | dose: 100.0 mg/kg/injection, schedule: Q01DX001 (ip), vehicle: Klucel (hydroxypropylcellulose) (HPC) 115 % of control

O=c1[nH]nc(CCc2ccc([N+](=O)[O-])cc2)o1
inactive: [16] 93 % of control | [18] 94 % of control | [24] 104 % of control

CC(=O)CC(=O)Nc1ccc(Cl)cc1Cl
inactive: [1] 100 % of control | [2] 98 % of control | [3] 102 % of control | [4] 91 % of control | [25] 98 % of control | [5] 93 % of control

Clc1ccc2scc3c4ccccc4nc-3c2c1
inactive: [26] 102 % of control

Cc1cccc(C)c1NC(=O)Nc1ccc(S(N)(=O)=O)cc1
inactive: [1] 100 % of control | [2] 101 % of control | [3] 95 % of control and 97 % of control | [4] 94 % of control | [25] 100 % of control and 88 % of control | [5] 92 % of control

O=C(O)CCC1CCC(=O)C1 (stereo not given)
inactive: dose: 50.0 mg/kg/injection, schedule: Q04DX002 (ip), vehicle: saline with Tween-80 102 % of control | dose: 100.0 mg/kg/injection, schedule: Q04DX002 (ip), vehicle: saline with Tween-80 106 % of control | dose: 200.0 mg/kg/injection, schedule: Q04DX002 (ip), vehicle: saline with Tween-80 98 % of control | dose: 400.0 mg/kg/injection, schedule: Q04DX002 (ip), vehicle: saline with Tween-80 95 % of control

C/C=C/c1cc2c(c(=O)o1)C(=O)[C@@H](O)[C@H](C)O2
inactive: [6] 92 % of control | [9] 103 % of control | [12] 94 % of control

O=S(=O)(NC1CCCCC1)c1ccccc1
inactive: dose: 75.0 mg/kg/injection, schedule: Q01DX009 (ip), vehicle: saline with Tween-80 94 % of control | dose: 150.0 mg/kg/injection, schedule: Q01DX009 (ip), vehicle: saline with Tween-80 95 % of control | dose: 300.0 mg/kg/injection, schedule: Q01DX009 (ip), vehicle: saline with Tween-80 97 % of control

COC1OCC(N=[N+]=[N-])C(OS(C)(=O)=O)C1OS(C)(=O)=O (stereo not given)
inactive: [8] 94 % of control | [11] 90 % of control | [14] 92 % of control

COC(=O)C1CC2C(CCC3C(C)(C(=O)OC)CCCC23C)C(=O)C1(O)C(C)C (stereo not given)
inactive: [7] 95 % of control | [10] 90 % of control | [13] 91 % of control

CC(=O)SCC(CSC(C)=O)c1nncc2ccccc12
inactive: dose: 100.0 mg/kg/injection, schedule: Q01DX001 (ip), vehicle: saline 95 % of control

COc1ccc(CC2Cc3cc(OC)c(OC)cc3C=N2)cc1OC (stereo not given)
inactive: [16] 100 % of control | [17] 98 % of control | [18] 100 % of control | [19] 93 % of control | [20] 91 % of control

CCOC(=O)C1CCC(C(=O)OCC)N1Cc1ccccc1 (stereo not given)
inactive: [16] 101 % of control | [18] 104 % of control | [24] 108 % of control

Cc1ncn(C)n1
inactive: [21] 94 % of control | [22] 112 % of control | [23] 98 % of control

OCC1COCOC1
inactive: [15] 104 % of control | [16] 106 % of control | [26] 100 % of control | [18] 106 % of control | dose: 200.0 mg/kg/injection, schedule: Q04DX003 (ip), vehicle: acetone 105 % of control | dose: 400.0 mg/kg/injection, schedule: Q04DX003 (ip), vehicle: acetone 105 % of control

c1ccc(CNc2nccs2)cc1
inactive: dose: 75.0 mg/kg/injection, schedule: Q01DX001 (ip), vehicle: carboxymethylcellulose (CMC) 96 % of control | dose: 150.0 mg/kg/injection, schedule: Q01DX001 (ip), vehicle: carboxymethylcellulose (CMC) 91 % of control | dose: 300.0 mg/kg/injection, schedule: Q01DX001 (ip), vehicle: carboxymethylcellulose (CMC) 95 % of control
